≈ marks a conversion by molar mass, not a printed value.
What was measured:
MOLT-3 = assay: Antiproliferative activity against human MOLT3 cells assessed as reduction in cell viability after 3 days by MTT assay; format: functional, cell-based; conditions: MOLT-3, 72 h
[1] = target: Sigma non-opioid intracellular receptor 1 (Cavia porcellus, UniProt Q60492); assay: Displacement of (+)-[3H]pentazocine from sigma1 receptor in guinea pig brain membranes; format: cell membranes
[2] = Inhibition of bovine brain microtubule polymerization incubated for 60 mins by spectrophotometric method; parameters: species or system Bos taurus
Aromatase = Aromatase (Homo sapiens, UniProt P11511); assay: Inhibition of recombinant human CYP19 using MFC as substrate incubated for 30 mins in presence of NADPH by fluorescence based assay
[3] = target: Induced myeloid leukemia cell differentiation protein Mcl-1 (Homo sapiens, UniProt Q07820); assay: Inhibition of MCL1 (unknown origin)
A549 [4] = assay: Antiproliferative activity against human A549 cells assessed as reduction in cell viability after 48 hrs by MTT assay; format: functional, cell-based; conditions: A549, 48 h
MCF7 [5] = assay: Antiproliferative activity against human MCF7 cells assessed as reduction in cell viability after 48 hrs by MTT assay; format: functional, cell-based; conditions: MCF7, 48 h
HeLa = assay: Antiproliferative activity against human HeLa cells assessed as reduction in cell viability after 48 hrs by MTT assay; format: functional, cell-based
HepG2 [6] = assay: Antiproliferative activity against human HepG2 cells assessed as reduction in cell viability after 48 hrs by MTT assay; format: functional, cell-based; conditions: HepG2, 48 h
Tubulin = Tubulin (Bos taurus, UniProt Q6B856+Q862L2+Q862F3); assay: Inhibition of bovine brain tubulin polymerization by spectrometric analysis
Histone deacetylase 3 = Histone deacetylase 3 (Homo sapiens, UniProt O15379); assay: Inhibition of HDAC3 (unknown origin)
Histone deacetylase 2 = Histone deacetylase 2 (Homo sapiens, UniProt Q92769); assay: Inhibition of HDAC2 (unknown origin)
[7] = target: Polyamine deacetylase HDAC10 (Homo sapiens, UniProt Q969S8); assay: Inhibition of HDAC10 (unknown origin)
Histone deacetylase 1 = Histone deacetylase 1 (Homo sapiens, UniProt Q13547)
Description: Inhibition of HDAC1 (unknown origin)

A549 [8] = assay: Antiproliferative activity against human A549 cells assessed as reduction in cell viability after 72 hrs by MTT assay; format: functional, cell-based; conditions: A549, 72 h
HuCC-A1 = assay: Antiproliferative activity against human HuCCa1 cells assessed as reduction in cell viability after 3 days by MTT assay; format: functional, cell-based; conditions: HuCC-A1, 72 h
HepG2 [9] = assay: Antiproliferative activity against human HepG2 cells assessed as reduction in cell viability after 72 hrs by MTT assay; format: functional, cell-based; conditions: HepG2, 72 h
K562 [10] = assay: Antiproliferative activity against human K562 cells assessed as reduction in cell viability after 72 hrs by MTT assay; format: functional, cell-based; conditions: K562, 72 h
HT-29 = assay: Antiproliferative activity against human HT-29 cells assessed as reduction in cell viability after 48 hrs by MTT assay; format: functional, cell-based; conditions: HT-29, 48 h
[11] = target: Histone deacetylase 3/Nuclear receptor corepressor 2 (HDAC3/NCoR2) (Homo sapiens, UniProt O15379); assay: Inhibition of recombinant human C-terminal GST/His-tagged HDAC3 (1 to 428 residues) co-expressed with human N-terminal GST-tagged NCOR2 (395 to 489 residues) in baculovirus infected Sf9 cells using Boc-Lys(Ac)-AMC as substrate preincubated for 15 mins followed by substrate addition and measured after 60 mins by fluorometric method
THP-1 = assay: Growth inhibition of human THP1 cells incubated for 72 hrs by trypan blue assay; format: functional; conditions: THP-1, 72 h
[12] = target: Bromodomain-containing protein 4 (Homo sapiens) (UniProt O60885); assay: Inhibition of GST-tagged BRD4 bromodomain 1/2 (unknown origin) at 10 uM incubated for 3 hrs by fluorescence based assay relative to control
HCT-116 = assay: Antiproliferative activity against human HCT116 cells assessed as reduction in cell viability by MTT assay; format: functional, cell-based
LoVo = assay: Antiproliferative activity against human LoVo cells assessed as reduction in cell viability by MTT assay; format: functional, cell-based
K562 [13] = assay: Antiproliferative activity against human K562 cells assessed as reduction in cell viability by MTT assay; format: functional, cell-based
MCF7 [14] = assay: Antiproliferative activity against human MCF7 cells assessed as reduction in cell viability by MTT assay; format: functional, cell-based
HepG2 [15] = assay: Antiproliferative activity against human HepG2 cells assessed as reduction in cell viability by MTT assay; format: functional, cell-based
[16] = target: Protein deacetylase HDAC6 (Homo sapiens, UniProt Q9UBN7); assay: Inhibition of HDAC6 (unknown origin) by fluorescence based assay
Histone deacetylase 8 = Histone deacetylase 8 (Homo sapiens, UniProt Q9BY41); assay: Inhibition of HDAC8 (unknown origin) by fluorescence based assay
Histone deacetylase 8, sequence (Q9BY41 whole entry): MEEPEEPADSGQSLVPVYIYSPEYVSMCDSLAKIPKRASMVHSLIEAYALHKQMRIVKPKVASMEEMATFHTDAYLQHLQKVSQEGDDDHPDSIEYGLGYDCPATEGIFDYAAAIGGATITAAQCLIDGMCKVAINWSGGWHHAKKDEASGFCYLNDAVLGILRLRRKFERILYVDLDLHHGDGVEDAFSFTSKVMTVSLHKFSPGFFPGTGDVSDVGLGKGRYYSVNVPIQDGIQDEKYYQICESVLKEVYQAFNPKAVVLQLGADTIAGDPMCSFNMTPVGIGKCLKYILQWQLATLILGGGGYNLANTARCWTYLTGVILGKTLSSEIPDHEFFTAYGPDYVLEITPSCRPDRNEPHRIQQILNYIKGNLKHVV

Histone deacetylase 3, sequence (O15379 whole entry): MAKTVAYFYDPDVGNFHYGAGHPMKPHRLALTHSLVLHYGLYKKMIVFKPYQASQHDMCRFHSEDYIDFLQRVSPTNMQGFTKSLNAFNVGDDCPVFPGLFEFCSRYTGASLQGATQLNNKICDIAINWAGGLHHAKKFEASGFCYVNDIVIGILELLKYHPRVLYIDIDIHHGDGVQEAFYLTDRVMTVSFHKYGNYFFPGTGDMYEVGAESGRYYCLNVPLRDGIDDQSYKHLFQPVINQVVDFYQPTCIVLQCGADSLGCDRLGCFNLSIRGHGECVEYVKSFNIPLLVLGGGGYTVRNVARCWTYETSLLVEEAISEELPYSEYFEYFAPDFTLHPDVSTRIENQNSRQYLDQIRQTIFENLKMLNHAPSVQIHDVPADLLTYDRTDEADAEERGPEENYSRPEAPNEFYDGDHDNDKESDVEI
Histone deacetylase 3/Nuclear receptor corepressor 2 (HDAC3/NCoR2), sequence (O15379 whole entry, the tested form may be a part): as the sequence (O15379 whole entry) above
Histone deacetylase 3/Nuclear receptor corepressor 2 (HDAC3/NCoR2), sequence (Q9Y618 whole entry, further chain, the tested form may be a part): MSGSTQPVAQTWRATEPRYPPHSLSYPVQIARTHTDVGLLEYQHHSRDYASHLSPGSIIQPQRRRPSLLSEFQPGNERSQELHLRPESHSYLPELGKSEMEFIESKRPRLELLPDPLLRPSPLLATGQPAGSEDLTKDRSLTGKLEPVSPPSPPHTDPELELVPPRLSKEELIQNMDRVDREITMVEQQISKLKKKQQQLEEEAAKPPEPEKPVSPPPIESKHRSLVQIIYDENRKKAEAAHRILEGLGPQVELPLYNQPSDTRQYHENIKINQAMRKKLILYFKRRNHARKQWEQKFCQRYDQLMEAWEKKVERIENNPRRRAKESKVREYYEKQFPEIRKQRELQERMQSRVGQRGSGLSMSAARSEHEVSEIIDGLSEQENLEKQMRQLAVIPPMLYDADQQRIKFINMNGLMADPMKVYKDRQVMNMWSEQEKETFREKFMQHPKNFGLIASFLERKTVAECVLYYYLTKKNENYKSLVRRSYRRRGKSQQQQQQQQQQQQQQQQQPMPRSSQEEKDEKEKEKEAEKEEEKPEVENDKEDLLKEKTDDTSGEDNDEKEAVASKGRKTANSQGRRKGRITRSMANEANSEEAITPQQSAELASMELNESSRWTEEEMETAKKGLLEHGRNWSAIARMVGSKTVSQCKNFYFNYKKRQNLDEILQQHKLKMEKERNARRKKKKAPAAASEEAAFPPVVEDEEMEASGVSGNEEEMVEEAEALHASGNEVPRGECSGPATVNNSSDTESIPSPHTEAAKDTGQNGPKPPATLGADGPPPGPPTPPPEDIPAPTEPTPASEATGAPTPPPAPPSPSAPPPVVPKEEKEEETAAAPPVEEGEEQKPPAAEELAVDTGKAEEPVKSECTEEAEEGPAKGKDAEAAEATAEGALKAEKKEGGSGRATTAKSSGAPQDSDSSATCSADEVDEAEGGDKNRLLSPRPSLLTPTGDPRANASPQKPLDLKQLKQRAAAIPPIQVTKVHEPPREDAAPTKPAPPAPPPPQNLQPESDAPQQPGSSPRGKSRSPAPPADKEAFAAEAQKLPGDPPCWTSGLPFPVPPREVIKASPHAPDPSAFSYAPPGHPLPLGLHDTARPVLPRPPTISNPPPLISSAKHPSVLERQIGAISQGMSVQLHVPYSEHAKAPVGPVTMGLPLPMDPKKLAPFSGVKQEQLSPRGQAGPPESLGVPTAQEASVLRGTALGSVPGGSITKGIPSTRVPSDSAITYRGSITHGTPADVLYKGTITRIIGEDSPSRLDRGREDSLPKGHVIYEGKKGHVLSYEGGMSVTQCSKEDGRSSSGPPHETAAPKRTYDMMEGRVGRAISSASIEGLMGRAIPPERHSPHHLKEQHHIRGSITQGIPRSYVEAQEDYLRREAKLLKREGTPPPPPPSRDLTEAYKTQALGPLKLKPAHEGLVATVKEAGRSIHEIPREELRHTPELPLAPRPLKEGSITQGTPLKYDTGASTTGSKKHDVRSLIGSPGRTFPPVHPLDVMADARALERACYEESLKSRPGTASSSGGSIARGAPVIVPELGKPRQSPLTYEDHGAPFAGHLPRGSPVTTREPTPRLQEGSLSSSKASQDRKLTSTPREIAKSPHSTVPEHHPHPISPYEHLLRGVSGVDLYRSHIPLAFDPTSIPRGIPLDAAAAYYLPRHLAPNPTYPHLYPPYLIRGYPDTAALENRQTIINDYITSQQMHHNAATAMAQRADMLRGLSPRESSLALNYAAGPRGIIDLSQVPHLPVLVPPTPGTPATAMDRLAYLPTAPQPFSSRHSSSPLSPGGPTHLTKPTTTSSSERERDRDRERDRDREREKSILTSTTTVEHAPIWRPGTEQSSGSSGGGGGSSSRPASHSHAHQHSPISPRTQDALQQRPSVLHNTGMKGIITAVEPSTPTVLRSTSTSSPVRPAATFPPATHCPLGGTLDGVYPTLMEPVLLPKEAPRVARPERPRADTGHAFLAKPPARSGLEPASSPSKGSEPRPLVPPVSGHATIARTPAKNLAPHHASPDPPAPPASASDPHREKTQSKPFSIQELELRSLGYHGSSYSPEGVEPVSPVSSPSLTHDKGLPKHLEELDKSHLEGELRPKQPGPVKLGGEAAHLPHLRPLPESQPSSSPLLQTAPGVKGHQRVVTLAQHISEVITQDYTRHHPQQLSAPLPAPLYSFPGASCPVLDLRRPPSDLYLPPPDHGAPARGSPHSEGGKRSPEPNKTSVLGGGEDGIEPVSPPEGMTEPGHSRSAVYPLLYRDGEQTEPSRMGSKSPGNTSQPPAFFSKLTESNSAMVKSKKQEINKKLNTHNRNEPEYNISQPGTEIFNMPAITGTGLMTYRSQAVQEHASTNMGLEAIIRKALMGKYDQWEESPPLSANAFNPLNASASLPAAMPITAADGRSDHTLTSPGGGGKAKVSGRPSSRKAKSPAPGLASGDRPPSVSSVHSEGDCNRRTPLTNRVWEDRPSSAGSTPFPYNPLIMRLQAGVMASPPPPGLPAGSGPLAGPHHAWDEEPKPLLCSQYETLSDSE
Induced myeloid leukemia cell differentiation protein Mcl-1, sequence (Q07820 whole entry): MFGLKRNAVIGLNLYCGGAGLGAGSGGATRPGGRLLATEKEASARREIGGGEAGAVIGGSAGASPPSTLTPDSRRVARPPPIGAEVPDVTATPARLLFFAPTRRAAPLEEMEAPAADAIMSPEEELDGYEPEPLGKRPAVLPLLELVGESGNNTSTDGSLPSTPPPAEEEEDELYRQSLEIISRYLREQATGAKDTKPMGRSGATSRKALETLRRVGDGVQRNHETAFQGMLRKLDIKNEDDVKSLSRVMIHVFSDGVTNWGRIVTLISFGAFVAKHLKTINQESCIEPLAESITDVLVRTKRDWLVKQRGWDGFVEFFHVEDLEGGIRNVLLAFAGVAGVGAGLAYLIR
Histone deacetylase 2, sequence (Q92769 whole entry): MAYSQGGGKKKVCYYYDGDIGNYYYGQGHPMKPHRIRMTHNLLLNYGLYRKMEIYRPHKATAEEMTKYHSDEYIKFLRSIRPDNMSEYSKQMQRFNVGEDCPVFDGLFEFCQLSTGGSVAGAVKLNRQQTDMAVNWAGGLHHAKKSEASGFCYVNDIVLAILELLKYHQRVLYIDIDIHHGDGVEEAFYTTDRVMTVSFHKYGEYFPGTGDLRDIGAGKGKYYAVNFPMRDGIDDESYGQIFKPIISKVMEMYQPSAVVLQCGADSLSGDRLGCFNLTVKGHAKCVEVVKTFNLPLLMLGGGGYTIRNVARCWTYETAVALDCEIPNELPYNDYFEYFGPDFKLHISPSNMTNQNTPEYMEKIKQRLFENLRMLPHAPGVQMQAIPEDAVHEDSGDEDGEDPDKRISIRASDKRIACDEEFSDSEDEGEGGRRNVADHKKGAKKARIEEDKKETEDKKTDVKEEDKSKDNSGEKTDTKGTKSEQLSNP
Aromatase, sequence (P11511 whole entry): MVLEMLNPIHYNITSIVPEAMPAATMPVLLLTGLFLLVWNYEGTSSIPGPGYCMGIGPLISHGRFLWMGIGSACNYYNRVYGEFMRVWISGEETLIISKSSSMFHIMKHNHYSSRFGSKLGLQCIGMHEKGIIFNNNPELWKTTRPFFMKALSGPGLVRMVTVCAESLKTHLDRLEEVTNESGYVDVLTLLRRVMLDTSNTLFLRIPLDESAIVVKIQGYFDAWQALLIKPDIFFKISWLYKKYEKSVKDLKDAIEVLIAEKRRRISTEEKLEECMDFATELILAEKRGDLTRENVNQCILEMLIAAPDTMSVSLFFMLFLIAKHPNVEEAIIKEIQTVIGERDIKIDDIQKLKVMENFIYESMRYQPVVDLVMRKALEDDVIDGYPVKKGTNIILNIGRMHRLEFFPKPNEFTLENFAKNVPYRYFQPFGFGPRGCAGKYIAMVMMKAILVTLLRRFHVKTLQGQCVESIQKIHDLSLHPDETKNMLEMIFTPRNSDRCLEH
Sigma non-opioid intracellular receptor 1, sequence (Q60492 whole entry): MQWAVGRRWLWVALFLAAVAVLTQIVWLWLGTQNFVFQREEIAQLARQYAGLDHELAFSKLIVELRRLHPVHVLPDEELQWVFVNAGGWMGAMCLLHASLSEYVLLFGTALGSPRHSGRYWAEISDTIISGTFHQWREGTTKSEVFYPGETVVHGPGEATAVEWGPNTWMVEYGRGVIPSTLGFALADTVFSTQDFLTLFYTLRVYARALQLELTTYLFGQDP

## O=[N+]([O-])c1ccc(S(=O)(=O)NCCc2c(C(c3ccccc3O)c3[nH]c4ccccc4c3CCNS(=O)(=O)c3ccc([N+](=O)[O-])cc3)[nH]c3ccccc23)cc1
MOLT-3
  IC50: 3.95 µg/mL (≈ 4.97 µM)

## COc1cc2c(cc1OC)CN(CCCCc1cn(-c3ccc(F)cc3)c3ccccc13)CC2
[1]
  Ki: 5.34 nM

## CC[C@]1(O)C[C@H]2CN(CCc3c([nH]c4ccccc34)[C@@](C(=O)OC)(c3cc4c(cc3OC)N(C=O)[C@H]3[C@@](O)(C(=O)OC)[C@H](OC(C)=O)[C@]5(CC)C=CCN6CC[C@]43[C@@H]65)C2)C1 [VINCRISTINE]
[2]
  Ki: 85 nM

## Cc1[nH]c2ccccc2c1/C=N\Nc1ccc(Cl)cc1
Aromatase
  IC50: 8720 nM

## Cc1cc(OCCCc2c(C(=O)NS(=O)(=O)c3ccc(C(=O)NCc4ccccc4)o3)[nH]c3c(-c4c(C)n[nH]c4C)c(Cl)ccc23)cc(C)c1Cl
[3]
  Ki: 2.4 nM

## COc1cc(C2=NN(C(N)=O)C(c3cn(C)c4ccc(Br)cc34)C2)cc(OC)c1OC (stereo unspecified)
A549 [4]
  IC50: 260 nM
MCF7 [5]
  IC50: 290 nM
HeLa
  IC50: 210 nM
HepG2 [6]
  IC50: 310 nM
Tubulin
  IC50: 2120 nM

## Nc1ccc(F)cc1NC(=O)c1ccc(CNC(=O)/C=C/c2cccnc2)cc1
Histone deacetylase 3
  IC50: 67 nM
Histone deacetylase 2
  IC50: 160 nM
[7]
  IC50: 78 nM
Histone deacetylase 1
  IC50: 95 nM

## O=S(=O)(NCCc1c(C(c2ccccc2O)c2[nH]c3ccccc3c2CCNS(=O)(=O)c2ccc(Cl)cc2)[nH]c2ccccc12)c1ccc(Cl)cc1
A549 [8]
  IC50: 8740 nM
HuCC-A1
  IC50: 7750 nM

## COc1cc(S(=O)(=O)/C=C/c2cccc3[nH]ccc23)cc(OC)c1OC
HepG2 [9]
  IC50: 75 nM
A549 [8]
  IC50: 305 nM
K562 [10]
  IC50: 55 nM

## CN1CCN(c2ncc([N+](=O)[O-])c(Nc3c(C(=O)c4cccs4)[nH]c4cc(Cl)ccc34)n2)CC1
HT-29
  IC50: 5560 nM
A549 [4]
  IC50: 14400 nM

## Cc1noc(C)c1-c1ccc2c(c1)c(Cc1ccc(F)cc1)cn2CCCCCCC(=O)NO
[11]
  IC50: 5 nM
THP-1
  GI50: 7820 to 24200 nM
[12]
  inhibition: 88%

## COc1ccc2[nH]cc(Cn3cc(COc4ccc(/C=C/C(=O)NO)cc4OC)nn3)c2c1
HCT-116
  IC50: 3570 to 6210 nM
LoVo
  IC50: 3570 to 6210 nM
K562 [13]
  IC50: 3570 to 6210 nM
MCF7 [14]
  IC50: 3570 to 6210 nM
HepG2 [15]
  IC50: 3570 to 6210 nM
[16]
  IC50: 290 nM
Histone deacetylase 8
  IC50: 380 nM
